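Method: 48-hour compound exposure of cells in 96-well plates, five concentrations, linear interpolation of endpoints. The concentration for 50% growth inhibition is given as GI50.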 Activity calls are given as the source filed them. No stated cut-off is given here; in the data, active = GI50 up to about 1.1 µM and inactive = higher.

Holding throughout (test): growth of human tumour cells (NCI), 48 h
The test system of experiment [1] is LOX IMVI.
Experiment [2] concerns K562.
Experiment [3] has as its system OVCAR-5.
In experiment [4] the test system is NCI/ADR-RES.
Experiment [5] relates to MDA-MB-435.
The test system of experiment [6] is ACHN.
The subject of experiment [7] is SK-OV-3.
Experiment [8] has as its system NCI-H460.
In experiment [9] the test system is U-251.
Experiment [10] has as its system SN12C.
The test system of experiment [11] is RPMI-8226.
Experiment [12] deals with SF-295.
Experiment [13] concerns CAKI-1.
Experiment [14] concerns HCT-15.
Experiment [15] deals with SR.
Experiment [16] relates to DU-145.
Experiment [17] concerns NCI-H226.
For experiment [18], the system named is MDA-MB-231.
Experiment [19] relates to UACC-62.
Experiment [20] deals with MOLT-4.

In the case of `N=C(N)N/N=C(/c1ccccc1)c1ccc(O)cc1O`, the GI50 in [1] was 34.9 µM (inactive); in experiment [2], 46.3 µM (inactive); in experiment [3], 33 µM (inactive); in [4], 95.3 µM (inactive); in experiment [5], 19.1 µM (inactive); in experiment [6] it was 45.9 µM (inactive). Further, the GI50 in experiment [7] is 33.4 µM (inactive); in experiment [8], 27.4 µM (inactive); in [9], 22.5 µM (inactive); in experiment [10], 29.4 µM (inactive); in experiment [11], 30.5 µM (inactive); in experiment [12], 28.2 µM (inactive). The GI50 was 51.5 µM (inactive) in [13]; 39.4 µM in [14]; 20.8 µM (inactive) in [15]; 33 µM (inactive) in experiment [16]; 29.9 µM (inactive) in experiment [17]; 45.1 µM (inactive) in experiment [18]. The GI50 in [19] was 30.1 µM (inactive).
In the case of `CC1=NN(c2nc(N)nc(COc3ccc(N)cc3)n2)C(C)(C)C1`, the GI50 in experiment [1], in experiment [2], in experiment [4], in [5], in experiment [6] and in experiment [7] was > 100 µM (inactive) throughout. Besides, the GI50 is > 100 µM (inactive) in [8]; > 100 µM (inactive) in experiment [9]; > 100 µM (inactive) in [11]; > 100 µM (inactive) in [12]; > 100 µM (inactive) in [13]; over 100 µM in [14]. Also, the GI50 in experiment [15], in experiment [20], in [16], in experiment [17], in experiment [18] and in experiment [19] was > 100 µM (inactive) each time.
`COc1ccc(SCc2cc(OC)ccc2OC)cc1`: the GI50 in experiment [1] is 34.8 µM (inactive); in experiment [2], 4.24 µM (inactive); in experiment [3], 24.5 µM (inactive); in [4], 13.2 µM (inactive); in experiment [5] it was 2.75 µM (inactive); in [6], 97.3 µM (inactive). For the same compound, the GI50 in [7] was 12 µM (inactive); in experiment [8], 37.4 µM (inactive); in experiment [9] it was 11.2 µM (inactive); in [10] it was 55.3 µM (inactive); in experiment [11], 34 µM (inactive); in experiment [12] it was 32.2 µM (inactive). Moreover, the GI50 is 31.9 µM (inactive) in [13]; 6.58 µM in experiment [14]; 6.55 µM (inactive) in experiment [15]; 8.24 µM (inactive) in experiment [20]; 44.4 µM (inactive) in experiment [16]; 25.3 µM (inactive) in experiment [17]. The GI50 was 82.2 µM (inactive) in [18] and 18.8 µM (inactive) in [19].
In the case of `O=C(/C=C/c1ccsc1)c1ccsc1`, the GI50 in [1] was 19.1 µM (inactive); in experiment [2], > 10 µM (inactive); in experiment [4], > 100 µM (inactive); in experiment [5], 22.5 µM (inactive); in [6], 20.4 µM (inactive); in experiment [7], > 100 µM (inactive). The GI50 was 23.7 µM (inactive) in experiment [8]; 18.1 µM (inactive) in experiment [9]; 19.5 µM (inactive) in experiment [10]; 15.5 µM (inactive) in experiment [11]; 40.7 µM (inactive) in experiment [12]; 20.9 µM (inactive) in [13]. Moreover, the GI50 is 19.1 µM in experiment [14]; 19.5 µM (inactive) in experiment [15]; 17.6 µM (inactive) in experiment [20]; > 100 µM (inactive) in experiment [16]; 17 µM (inactive) in experiment [17]; 20.6 µM (inactive) in [18]. Further, in experiment [19], the GI50 is 32.4 µM (inactive).
On to `CSc1ncc2c(C#N)c3n(C)c4ccccc4n3c(=O)c2n1`, for which the GI50 in [1], in experiment [2], in experiment [3], in experiment [4], in experiment [5] and in experiment [6] was > 100 µM (inactive) each time. Also, the GI50 in experiment [7], in experiment [8], in experiment [9], in experiment [10], in experiment [11] and in experiment [12] was > 100 µM (inactive) each time. The GI50 in experiment [13] is > 100 µM (inactive); in [14], over 100 µM; in experiment [15], > 100 µM (inactive); in experiment [20], > 100 µM (inactive); in experiment [16] it was > 100 µM (inactive); in experiment [17] it was > 100 µM (inactive). Moreover, the GI50 in experiment [18] and in experiment [19] was > 100 µM (inactive) each time.
As for `COC1(OC)CCc2c(sc3ncnc(Nc4cccc(Br)c4)c23)C1`, the GI50 in experiment [1] is 35.7 µM (inactive); in experiment [2], 26.2 µM (inactive); in experiment [3] it was 20.7 µM (inactive); in experiment [4], 25.5 µM (inactive); in experiment [5], 62.2 µM (inactive); in experiment [6], 5.71 µM (inactive). Also, the GI50 in [7] was > 100 µM (inactive); in [8], 40.7 µM (inactive); in experiment [9] it was 61.5 µM (inactive); in experiment [10], 68.4 µM (inactive); in [11], 17 µM (inactive); in experiment [12] it was 72.8 µM (inactive). The GI50 is 30.6 µM (inactive) in [13]; 30.8 µM in [14]; 26.2 µM (inactive) in experiment [15]; 14.2 µM (inactive) in experiment [20]; 10.9 µM (inactive) in [16]; 43.8 µM (inactive) in experiment [17]. Further, the GI50 in experiment [18] is 49.5 µM (inactive); in experiment [19], 47.2 µM (inactive).
`CC1C=C(NCC2(CO)CCC2)N=C(N)N1` (stereo unspecified): the GI50 in experiment [1], in [2], in [3], in experiment [4], in [5] and in [6] was > 100 µM (inactive) throughout. The GI50 in experiment [7], in [8], in experiment [9], in [10], in [11] and in experiment [12] was > 100 µM (inactive) in each case. The GI50 in experiment [13] is > 100 µM (inactive); in experiment [14], over 100 µM; in experiment [15] it was > 100 µM (inactive); in experiment [20], > 100 µM (inactive); in [16], > 100 µM (inactive); in [17], > 100 µM (inactive). The GI50 in experiment [18] and in experiment [19] was > 100 µM (inactive) throughout.
Turning to `NCC(O)CNCC/C=C\C/C=C\C/C=C\C/C=C\C/C=C\C/C=C\CCCCC/C=C\CCNCC(O)CN` (stereo unspecified), the GI50 is 1.79 µM (inactive) in experiment [1]; 2.29 µM (inactive) in experiment [2]; 1.94 µM (inactive) in [3]; 1.47 µM (inactive) in [4]; 1.65 µM (inactive) in experiment [5]; 1.8 µM (inactive) in [6]. Further, the GI50 in [7] was 2.64 µM (inactive); in [8], 1.82 µM (inactive); in experiment [9], 1.72 µM (inactive); in experiment [10], 1.64 µM (inactive); in experiment [11], 1.66 µM (inactive); in experiment [12], 2.07 µM (inactive). The GI50 in [13] was 2.08 µM (inactive); in [14], 1.6 µM; in [15] it was 0.435 µM (active); in [20] it was 1.24 µM (inactive); in [16], 1.77 µM (inactive); in [17] it was 2.64 µM (inactive). The values for the GI50 in experiment [18] and in experiment [19] were 1.75 µM (inactive) and 1.79 µM (inactive), respectively.
Regarding `C[n+]1ccccc1/C=C/c1ccc2c(c1)OCO2`, the GI50 in experiment [1], in experiment [2], in [3], in [4], in [5] and in experiment [6] was > 10 µM (inactive) each time. The GI50 in experiment [7], in experiment [8], in experiment [9], in [10], in experiment [11] and in [12] was > 10 µM (inactive) throughout. In addition, the GI50 in [13] was > 10 µM (inactive); in experiment [14], over 10 µM; in [15], > 10 µM (inactive); in [20] it was > 10 µM (inactive); in experiment [16] it was > 10 µM (inactive); in [17], > 10 µM (inactive). Besides, the GI50 in [18] and in [19] was > 10 µM (inactive) in each case.
As to `Nc1cccc(-c2cc(O)c3cc4c(cc3n2)OCO4)c1`, the GI50 in experiment [1] is 1.23 µM (inactive); in [2], 0.792 µM (active); in [3] it was > 100 µM (inactive); in experiment [4] it was 0.581 µM (active); in [5], 0.16 µM (active); in experiment [6], 3.87 µM (inactive). Further, the GI50 in [7] was 1.28 µM (inactive); in [8], 4.28 µM (inactive); in [9] it was 1.81 µM (inactive); in [10], 4.59 µM (inactive); in experiment [11] it was 6.35 µM (inactive); in experiment [12] it was 2.87 µM (inactive). The GI50 in [13] is 3.68 µM (inactive); in experiment [14], 1.23 µM; in experiment [15], 0.191 µM (active); in experiment [20], 2.07 µM (inactive); in experiment [16], 0.64 µM (active); in experiment [17], 1.85 µM (inactive). The GI50 in experiment [18] is 1.73 µM (inactive); in experiment [19], 0.402 µM (active).

The values are drawn from ChEMBL document CHEMBL1201862, “PubChem BioAssay data set” (2004).
